The record followed here is ChEMBL document CHEMBL3132848, “Glycosidase inhibition by novel guanidinium and urea iminosugar derivatives” (Medchemcomm, 2013).

The nature of assay [1]: Inhibition of naringinase in Penicillium decumbens after 30 mins by spectrophotometric analysis.
The nature of assay [2]: Inhibition of beta-mannosidase in Roman snail after 30 mins by spectrophotometric analysis. Further details: species or system Helix pomatia.
Assay [3] in a line: Inhibition of alpha-mannosidase in jack bean after 30 mins by spectrophotometric analysis. Also on record: species or system Canavalia ensiformis.
Assay [4] in a line: Inhibition of beta-glucosidase in almond after 30 mins by spectrophotometric analysis. Further details: species or system Prunus dulcis.
Assay [5] in a line: Inhibition of alpha-glucosidase in yeast after 30 mins by spectrophotometric analysis. Also on record: species or system Saccharomyces cerevisiae.
Assay [6] has as its target T1, Beta-galactosidase (Bos taurus, UniProt Q58D55).
T1 sequence (Q58D55 whole entry): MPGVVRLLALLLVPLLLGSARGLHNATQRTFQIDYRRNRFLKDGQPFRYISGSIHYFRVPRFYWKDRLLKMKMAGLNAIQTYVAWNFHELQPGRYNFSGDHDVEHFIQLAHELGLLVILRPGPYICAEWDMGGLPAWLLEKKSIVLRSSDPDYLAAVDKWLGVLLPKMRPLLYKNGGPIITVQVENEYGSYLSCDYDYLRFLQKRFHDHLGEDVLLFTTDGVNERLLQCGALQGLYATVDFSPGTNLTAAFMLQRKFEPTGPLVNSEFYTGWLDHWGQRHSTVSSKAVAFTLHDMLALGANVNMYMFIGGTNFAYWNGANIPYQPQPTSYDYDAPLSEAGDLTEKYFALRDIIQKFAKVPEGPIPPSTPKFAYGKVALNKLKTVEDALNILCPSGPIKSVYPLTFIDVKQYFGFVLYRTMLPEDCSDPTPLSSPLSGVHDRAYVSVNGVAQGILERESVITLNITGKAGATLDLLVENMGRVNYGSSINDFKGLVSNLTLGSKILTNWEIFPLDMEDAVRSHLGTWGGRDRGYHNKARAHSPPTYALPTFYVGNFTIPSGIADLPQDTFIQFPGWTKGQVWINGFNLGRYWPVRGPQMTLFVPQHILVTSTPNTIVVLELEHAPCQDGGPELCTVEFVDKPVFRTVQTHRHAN
In words: Inhibition of beta-galactosidase in bovine liver after 30 mins by spectrophotometric analysis.

Assay [7] concerns the target Alpha-galactosidase (Coffea arabica, UniProt Q42656). In words: Inhibition of alpha-galactosidase in green coffee bean after 30 mins by spectrophotometric analysis.

Alpha-galactosidase, sequence (Q42656 whole entry): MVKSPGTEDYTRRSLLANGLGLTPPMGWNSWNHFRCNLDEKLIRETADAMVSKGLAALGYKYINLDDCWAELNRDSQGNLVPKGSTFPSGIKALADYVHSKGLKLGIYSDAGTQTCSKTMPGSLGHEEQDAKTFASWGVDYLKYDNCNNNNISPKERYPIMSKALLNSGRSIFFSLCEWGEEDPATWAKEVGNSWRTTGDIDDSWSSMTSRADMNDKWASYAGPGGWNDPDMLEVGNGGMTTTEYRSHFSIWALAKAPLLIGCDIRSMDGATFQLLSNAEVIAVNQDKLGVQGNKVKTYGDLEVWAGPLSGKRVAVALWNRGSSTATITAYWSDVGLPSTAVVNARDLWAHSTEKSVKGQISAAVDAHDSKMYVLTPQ

For `CCCCCCN1C[C@H](O)[C@@H](O)[C@H](O)[C@H]1CO`, the concentration for half-maximal inhibition (IC50) is 6 µM in assay [1]; above 1000 µM in assay [2]; above 1000 µM in assay [3]; 59 µM in assay [4]; 134 µM in assay [5]; above 1000 µM in assay [6]. This compound also yielded an IC50 in assay [7] of 251 µM.

Take `CCCCNC(=O)N1C[C@H](O)[C@@H](O)[C@H](O)[C@H]1CO`: the concentration for half-maximal inhibition (IC50) is above 1000 µM in assay [1]; above 1000 µM in assay [2]; above 1000 µM in assay [3]; above 1000 µM in assay [4]; above 1000 µM in assay [5]; 27 µM in assay [6]. For the same compound, in assay [7], the IC50 was above 1000 µM.

Consider `CCCCNC(=N)N1C[C@H](O)[C@@H](O)[C@H](O)[C@H]1CO`, for which the 50% inhibitory concentration (IC50) in assay [1] is above 1000 µM; in assay [2] it was 408 µM; in assay [3], 113 µM; in assay [4] it was 41 µM; in assay [5], 20 µM; in assay [6], 15 µM. Also, in assay [7], the midpoint of inhibition, the IC50, lay at 18 µM.

As for `CCCCCCCCNC(=N)N1C[C@H](O)[C@@H](O)[C@H](O)[C@H]1CO`, the half-inhibitory concentration (IC50) in assay [1] stood at 67 µM; in assay [3], 55 µM; in assay [4], 25 µM; in assay [5], 31 µM; in assay [6], 2.6 µM; in assay [7], 23 µM.

In the case of `N=C(NCCOCCO)N1C[C@H](O)[C@@H](O)[C@H](O)[C@H]1CO`, the half-inhibitory concentration (IC50) in assay [1] is 172 µM; in assay [3], above 1000 µM; in assay [4], above 1000 µM; in assay [5], 251 µM; in assay [6], above 1000 µM; in assay [7], above 1000 µM.

With `N=C(NCCO)N1C[C@H](O)[C@@H](O)[C@H](O)[C@H]1CO`, the IC50 in assay [1] was 645 µM; in assay [3], above 1000 µM; in assay [4] it was 457 µM; in assay [5] it was 133 µM; in assay [6], above 1000 µM; in assay [7], 540 µM.

For the compound `N=C(NCc1ccccc1)N1C[C@H](O)[C@@H](O)[C@H](O)[C@H]1CO`, the concentration for half-maximal inhibition (IC50) in assay [1] was 27 µM; in assay [3] it was above 1000 µM; in assay [4], 4.3 µM; in assay [5] it was above 1000 µM; in assay [6], 5.1 µM; in assay [7], above 1000 µM.

As to `N=C(NCCCc1ccccc1)N1C[C@H](O)[C@@H](O)[C@H](O)[C@H]1CO`, the IC50 in assay [1] was 33 µM; in assay [3], above 1000 µM; in assay [4] it was 67 µM; in assay [5] it was above 1000 µM; in assay [6], 6.2 µM; in assay [7], above 1000 µM.

As for `N=C(NCCCOCC12CC3CC(CC(C3)C1)C2)N1C[C@H](O)[C@@H](O)[C@H](O)[C@H]1CO`, the concentration for half-maximal inhibition (IC50) is 22 µM in assay [1]; above 1000 µM in assay [3]; 489 µM in assay [4]; 131 µM in assay [5]; 5.4 µM in assay [6]; above 1000 µM in assay [7].

`OC[C@H]1NC[C@H](O)[C@@H](O)[C@@H]1O` [DUVOGLUSTAT]: the IC50 was 33 µM in assay [1]; above 1000 µM in assay [2]; above 1000 µM in assay [3]; 312 µM in assay [4]; 167 µM in assay [5].

The IC50 is the concentration that gives 50% inhibition. High values mean weaker potency in that assay, low ones greater potency in that assay.
